Measurements: PMC8557866, “Novel Small Molecule Growth Inhibitor Affecting Bacterial Outer Membrane Reduces Extraintestinal Pathogenic Escherichia coli (ExPEC) Infection in Avian Model” (Microbiology Spectrum, 2021)
Values after ≈ are worked out from the molar mass of the structure shown.

Key:
APEC serotype O78 = details: for Mean APEC load, Heart / Mean APEC load, Kidney / Mean APEC load, Liver / Mean APEC load, Lung / Mean lesion score in Air sacs / Mean lesion score in Heart / Mean lesion score in Liver / Mean lesion score in Lung / Cumulative lesion score / Mortality reduction compared to PC group / % reduction in severity, Air sacs lesions / % reduction in severity, Heart lesions / % reduction in severity, Liver lesions / % reduction in severity, Lung lesions / log reduction in APEC load, Heart / log reduction in APEC load, Kidney / log reduction in APEC load, Liver / log reduction in APEC load, Lung: efficacy trial, oral; for Cumulative lesion score: PC 6.2; for Mortality reduction compared to PC group: PC mortality 58.3%; for % reduction in severity, Air sacs lesions / % reduction in severity, Heart lesions / % reduction in severity, Liver lesions / % reduction in severity, Lung lesions / log reduction in APEC load, Heart / log reduction in APEC load, Kidney / log reduction in APEC load, Liver / log reduction in APEC load, Lung: vs PC; for BWG (body weight gain): in vivo
Description: The efficacy of GIs was assessed using commercial broiler chickens (n = 6/group). […] GI compounds (ChemBridge, San Diego, CA) dissolved in dimethyl sulfoxide (DMSO) were administered orally using a syringe, twice a day, from day 4 (1 day before APEC infection) to day 8 (3 days postinfection [dpi]). The dose of each GI is described in Table S1. […] Chickens that were infected and vehicle-treated (positive control [PC]) and noninfected and nontreated (negative control [NC]) were included as controls. On day 5, chickens were infected subcutaneously (s.c.) with rifampin-resistant (Rif^r) APEC serotype O78 ([18]) (1 × 10^7 CFU/chicken). […] To prepare the APEC inoculum for infection, Rif^r APEC O78 (50 μg/ml rifampin) was grown to logarithmic phase in LB medium, washed twice with phosphate-buffered saline (PBS), and adjusted to an optical density at 600 nm (OD600) of 0.1 (5 × 10^7 CFU/ml). The clinical signs and mortality were recorded until 7 dpi. Chickens that died during this period were necropsied on the same day, lesions in internal organs (liver, heart, lung, and air sacs) were scored as described previously ([63], [71]), and the APEC loads were quantified in internal organs (liver, heart, lung, and kidney) by plating the tissue homogenates on MacConkey agar plates containing 50 μg/ml rifampin ([18]). At 7 dpi (day 12), all live birds were euthanized, lesions were scored, and the APEC loads in internal organs were quantified as described above. The body weight of chickens was measured before GI treatment (day 3) and at the day of necropsy (day 12).

APEC O78 [1] = test system: APEC O78; design: method as in PMID 30333507; details: cited from earlier work
APEC O78 [2] = experiment: Comparative efficacy of GI-7 and sulfadimethoxine, floor trial; format: in vivo, commercial broiler chickens; design: % reduction in severity, Liver lesions / % reduction in severity, Heart lesions / % reduction in severity, Lung lesions / % reduction in severity, Air sacs lesions: concentration or dose not given beside the values; Cumulative lesion score / Mean lesion score in Liver / Mean lesion score in Heart / Mean lesion score in Lung / Mean lesion score in Air sacs: scale not given here
Description: At day 13 (7 dpi), half of the chickens from each group, and at day 42 (slaughter age), 10 chickens from each group were necropsied and lesions and APEC loads were assessed as described above.

[3] = Pharmacokinetic study in plasma of chickens (LC-MS); format: in vivo; details: plasma
Description: Details of the methods are included in the supplemental material. page 3: previously(3). […] The mixtures were then incubated at […] for 30 min and proteins were removed by ultracentrifugation at 13,000xg for 25 min at 2 °C.

[4] = Quantification of residue in chicken tissues (LC-MS); format: in vivo, chickens
Excerpt: Chickens (n = 5/time point) from an experimental set-up as described above for the floor trial were sacrificed at 2 days (day 13; 2 DPLT), 5 days (day 16; 5 DPLT), and 31 days (day 42; 31 DPLT) post-last treatment. […] Tissue samples from chickens treated with SDM were used for comparison. […] Details of the methods are included in the supplemental material.

[5] = comparative efficacy trial, vs PC
[6] = comparative efficacy, GI-7 60 mg/liter, SDM 495.3 mg/liter, 7 dpi

## CC1CCCN(CCC(=O)c2ccc(Br)cc2)C1 (centres unmarked) [GI-1]
APEC serotype O78
  Mean APEC load, Heart: 6.8 Log CFU/g tissues
  Mean APEC load, Kidney: 6.6 Log CFU/g tissues
  Mean APEC load, Liver: 6.7 Log CFU/g tissues
  Mean APEC load, Lung: 6.4 Log CFU/g tissues
  Mean lesion score in Air sacs: 1.5
  Mean lesion score in Heart: 2.0
  Mean lesion score in Liver: 2.0
  Mean lesion score in Lung: 0.7
  Cumulative lesion score: 6.2
  Mortality reduction compared to PC group: 8.3%
  % reduction in severity, Air sacs lesions: −5.9%
  % reduction in severity, Heart lesions: 4%
  % reduction in severity, Liver lesions: −20%
  % reduction in severity, Lung lesions: 33.3%
  log reduction in APEC load, Heart: -1.8 Log CFU/g tissues
  log reduction in APEC load, Kidney: -1.1 Log CFU/g tissues
  log reduction in APEC load, Liver: -2.0 Log CFU/g tissues
  log reduction in APEC load, Lung: -1.4 Log CFU/g tissues
  BWG (body weight gain): 165.6±69.2
APEC O78 [1]
  MIC: 200 µM (≈ 62 µg/mL)

## COc1cc(NS(=O)(=O)c2ccc(N)cc2)nc(OC)n1 [SDM, sulfadimethoxine, reference compound]
APEC O78 [2]; GI-7 60 mg/liter, SDM 495.3 mg/liter in drinking water, PC mortality 41.2%
  Mortality reduction compared to PC group: 11.9%
APEC O78 [2]; comparative efficacy trial
  Mean APEC load, Heart: 5.6 Log CFU/g tissues
  Mean APEC load, Kidney: 5.5 Log CFU/g tissues
  Mean APEC load, Liver: 5.0 Log CFU/g tissues
  Mean APEC load, Lung: 6.2 Log CFU/g tissues
APEC O78 [2]; [5]
  log reduction in APEC load, Heart: 2.3 Log CFU/g tissues
  log reduction in APEC load, Kidney: 2.2 Log CFU/g tissues
  log reduction in APEC load, Liver: 2.5 Log CFU/g tissues
  log reduction in APEC load, Lung: 1.9 Log CFU/g tissues
APEC O78 [2]; comparative efficacy, 7 dpi
  Cumulative lesion score: 8.5
APEC O78 [2]; [6]
  Mean lesion score in Air sacs: 2.5
  Mean lesion score in Heart: 2.8
  Mean lesion score in Liver: 2.0
  Mean lesion score in Lung: 1.2
APEC O78 [2]; comparative efficacy, vs PC
  % reduction in severity, Air sacs lesions: 25.7%
  % reduction in severity, Heart lesions: 20.8%
  % reduction in severity, Liver lesions: 19.2%
  % reduction in severity, Lung lesions: 36.9%
APEC O78 [2]; floor trial, P < 0.1
  Survival of chickens: increased the survival
APEC O78 [2]; in vivo
  Overall BWG: 2,408.1 g
  Overall FCR: 1.49
[3]; commercial broiler, po, mean ± standard deviation, read-out: Peak plasma concentration (Cmax)
  Cmax: 994 ± 167 ng/mL
[3]; commercial broiler, po, postadministration, read-out: Time to maximum concentration (Tmax)
  Tmax: 24 h
[3]; drinking water delivery
  Absorption (time at which absorbed): 2 h
[4]; 2 DPLT
  Residue concentration in muscle: 0.2 ± 0.1 ppm/g tissue
  Residue level in kidney: 1.0 ± 0.2 ppm/g tissue
  Residue level in liver: 0.2 ± 0.04 ppm/g tissue
[4]; 5 DPLT
  Residue concentration in muscle: 0.02 ± 0.02 ppm/g tissue
  Residue level in kidney: 1 ± 0.1 ppm/g tissue
  Residue level in liver: 0.04 ± 0.02 ppm/g tissue
[4]; 31 DPLT
  Residue concentration in muscle: 0.0 ± 0.0 ppm/g tissue
  Residue level in kidney: 0.0 ± 0.0 ppm/g tissue
  Residue level in liver: 0.0 ± 0.0 ppm/g tissue

## COc1cc(CNCCc2ccc(C)cc2)ccc1OCC(O)CN1CCCC1 (centres unmarked) [GI-3]
APEC serotype O78
  Mean APEC load, Heart: 7.0 Log CFU/g tissues
  Mean APEC load, Kidney: 6.9 Log CFU/g tissues
  Mean APEC load, Liver: 6.5 Log CFU/g tissues
  Mean APEC load, Lung: 7.0 Log CFU/g tissues
  Mean lesion score in Air sacs: 1.8
  Mean lesion score in Heart: 2
  Mean lesion score in Liver: 2
  Mean lesion score in Lung: 1
  Cumulative lesion score: 6.8
  % reduction in severity, Air sacs lesions: −29.4%
  % reduction in severity, Heart lesions: 4%
  % reduction in severity, Liver lesions: −20%
  % reduction in severity, Lung lesions: 0%
  log reduction in APEC load, Heart: -2.1 Log CFU/g tissues
  log reduction in APEC load, Kidney: -1.4 Log CFU/g tissues
  log reduction in APEC load, Liver: -1.8 Log CFU/g tissues
  log reduction in APEC load, Lung: -2.0 Log CFU/g tissues
  BWG (body weight gain): 254.6±95
APEC O78 [1]
  MIC: 100 µM (≈ 39.9 µg/mL)

## COc1cc(CNCCc2ccc3ccccc3c2)ccc1OCC(O)CN1CCCC1 (centres unmarked) [GI-2]
APEC serotype O78
  Mean APEC load, Heart: 4.1 Log CFU/g tissues
  Mean APEC load, Kidney: 3.8 Log CFU/g tissues
  Mean APEC load, Liver: 3.4 Log CFU/g tissues
  Mean APEC load, Lung: 3.5 Log CFU/g tissues
  Mean lesion score in Air sacs: 1.2
  Mean lesion score in Heart: 1.8
  Mean lesion score in Liver: 1.7
  Mean lesion score in Lung: 0.7
  Cumulative lesion score: 5.3
  Mortality reduction compared to PC group: 25%
  % reduction in severity, Air sacs lesions: 17.7%
  % reduction in severity, Heart lesions: 12%
  % reduction in severity, Liver lesions: 0%
  % reduction in severity, Lung lesions: 33.3%
  log reduction in APEC load, Heart: 0.8 Log CFU/g tissues
  log reduction in APEC load, Kidney: 1.7 Log CFU/g tissues
  log reduction in APEC load, Liver: 0.9 Log CFU/g tissues
  log reduction in APEC load, Lung: 1.1 Log CFU/g tissues
  BWG (body weight gain): 125.5±34.7
APEC O78 [1]
  MIC: 100 µM (≈ 43.5 µg/mL)

## CCN1/C(=C/c2ccc3ccccc3[n+]2CC)C=Cc2ccccc21 [GI-9]
APEC serotype O78
  Mean APEC load, Heart: 5.9 Log CFU/g tissues
  Mean APEC load, Kidney: 5.7 Log CFU/g tissues
  Mean APEC load, Liver: 4.7 Log CFU/g tissues
  Mean APEC load, Lung: 5.6 Log CFU/g tissues
  Mean lesion score in Air sacs: 2.7
  Mean lesion score in Heart: 3.3
  Mean lesion score in Liver: 2.5
  Cumulative lesion score: 9.7
  Mortality reduction compared to PC group: 25%
  % reduction in severity, Air sacs lesions: −88.2%
  % reduction in severity, Heart lesions: −60%
  % reduction in severity, Liver lesions: −50%
  log reduction in APEC load, Heart: -0.5 Log CFU/g tissues
  log reduction in APEC load, Kidney: -0.2 Log CFU/g tissues
  log reduction in APEC load, Liver: -0.1 Log CFU/g tissues
  log reduction in APEC load, Lung: -0.9 Log CFU/g tissues
  BWG (body weight gain): 214.9±31.9
APEC O78 [1]
  MIC: 25 µM
